For data set [1], the system named is Fibroblast cells of infant. The settings on record: 24 hours, none-treated sample = 100. The method, then:
The effect on promoting biosynthesis of collagen was examined in vitro for assaying the effect of the present invention on skin, comparing to 3-amino propane phosphate.
Fibroblast cells of infant were inoculated on 24-wells(10^5 cells/well). They were washed with PBS once. And then, preparation example 1 and 3-aminopropane phosphate as a control were treated by the concentration shown Table 3, and were incubated at CO2 incubator for 24 hours. Each supernatant was collected, and the variation of procollagen was measured by using procollangen type (I) ELISA kit. The value of biosynthesis activity was calculated by comparing to 100, the value of none-treated sample.

A short description of data set [2]: Measurement of antioxidant activity using Lard oil. The settings on record: 60° C. dark room, when weight no longer changed, NMR spectroscopy. How it is done: 2.0 g of Lard oil was poured on petri-dish, and here 40 mmol of each of tocopherol, preparation example 1 or tocopherol acetate was added. Then, the mixture solution was maintained in a dark room of 60° C. The oxidation ratio of Lard oil was determined by daily measurement of the change in weight. The less is the changeability in weight of Lard oil, the stronger is the antioxidant ability, because the increase in weight of Lard oil is related to the oxidation of Lard oil.
In the meantime, when the change in weight of Lard oil was not observed any longer, the oxidation ratio was determined by using NMR spectroscopy.

Data set [3] is described as follows: Measurement of antioxidant activity using linoleic acid. The following applies: 60° C. dark room, when weight no longer changed, NMR spectroscopy. How it is done:
2.0 g of pure linoleic acid was poured on a petri-dish, and here 40 mmol of each of tocopherol, preparation example 1 or tocopherol acetate was added. Then, the mixture solution was maintained in a dark room of 60° C. The oxidation ratio of linoleic oil was measured by daily measurement of the change in weight. The less is the changeability in weight of linoleic acid, the stronger is the antioxidant ability, because the increase in weight of linoleic acid is related to the oxidation of linoleic oil.
In the meantime, when the change in weight of linoleic acid was not observed any longer, the oxidation ratio was determined by using NMR spectroscopy.

The conditions of data set [4]: 60° C., in cetylethyl-hexanoate; for Residual ration(%): HPLC.
Description: Each 3 g of preparation example 1 product and tocopherol was dissolved with 100 ml of cetylethyl-hexanoate. […] Then, residual ratio of each compound was analyzed by using HPLC. Here, phenyl column, eluate solution of 70% aqueous THF solution including 10 mM SDS and 50 mM H3PO4, flow rate of 1 ml/min and detection of 286 nm was used as HPLC analysis condition of preparation example 1. And ODS column, MeOH as eluate solution, flow rate of 1 ml/min and detection of 290 nm was used as HPLC analysis condition of tocopherol for control.
For data set [5] the following is noted: 60° C., in cetylethyl-hexanoate, six months, unaided eye.
For data set [6], the system named is mice. The following applies: oral, 1 ml/kg of 10% solution in squalene. The method, then:
(§1) If the tocopherol derivatives should be used as cosmetic ingredient, their safety in the living body is very important. […] The product of Preparation Example 1 was dissolved in squalene to produce 10% of solution sample, and the sample was employed in safety experiments.
Acute oral toxicity test in mice: 1 ml/kg of the sample was administrated to total ten (10) mice (male and female were separately five (5) mice).

For data set [7], the system named is mice. The following applies: percutaneous once, 0.2 ml/kg of 10% solution in squalene, two weeks of observation. How it is done:
as §1
(§2) 1-2. Acute dermal toxicity test in mice and rabbits: 0.2 ml/kg of the sample was administrated percutaneously once to a total of ten (10) mice (five male and five female).

In data set [8] the test system is rabbits. The settings on record: same experiment as in mice (percutaneous, 10% solution in squalene). The method, then:
as §1, §2

Data set [9] deals with rabbits. The following applies: 0.1 ml of 10% solution in squalene on depilated back site. How it is done:
as §1
1-3. Primary skin irritation test: 0.1 ml of test sample was applied to back site (2.5 cm×2.5 cm) of each of 12 rabbits depilated 24 hours before.

Data set [10] concerns rabbits. The following applies: 0.1 ml of sample diluted with saline to 2%. The method, then: as §1
1-4. Eye irritation test: The sample was diluted with saline to produce 2% of test sample, and 0.1 ml of the diluted solution was applied to the eye of each of nine (9) rabbits.

Another data set deals with Guinea pigs. The following applies: 10% solution in squalene. How it is done: as §1
1-5. Skin sensitization test: Test was carried out for six (6) (three males and three females) Guinea pigs according to Maggnusson and Kligman's procedure.

The next data set deals with healthy women. The following applies: human patch test, healthy women aged 20~28. The method, then: as §1
1-6. Human patch test: Human patch test was carried out for thirty (30) healthy women aged 20˜28 according to CTFA Guideline(The Cosmetic Toiletry and Fragrance Association, INC., Washington, D.C. 20036, 1991).

In a further data set the test system is subjects. The following applies: repeat insult human patch test. The method, then:
as §1
1-7. Repeat Insult Human Patch Test: Human patch test was carried out for subjects according to CTFA Guideline.

The next data set has as its system phosphodiesterase. The settings on record: 37° C., 24 hours, 1% aqueous solution of 1:9 mixture with Tween 20, HPLC.

Read-outs that look alike come from different tables or passages of the source.

Description for phosphodiesterase: The phosphodiesterase was used as biological enzyme, and 1% aqueous solution of 1:9 mixture of preparation example 1 and Tween 20 was prepared to use as an assay sample. After the stirring mixture of the above enzyme, assay sample and medium solution at a temperature of 37° C. for 24 hours, analysis for the hydrolysis ratio of tocopherol derivatives was carried out by using HPLC(MeOH:THF=9:1, R.T.=13.695 min, tocopherol).

With `NCCCOP(=O)(O)O` [3-aminopropane phosphate, reference compound], the “Biosynthesis activity (%)” value in data set [1] (concentration 10^−4 %) is 146%.

Consider tocopherol [reference compound], for which, in data set [2], the “oxidation ratio of Lard oil” value is listed as “about 90%”. Further, in data set [3], the “oxidation ratio of linoleic acid” value was “about 83%”. Further, the “Residual ration(%)” value in data set [4] (Month 1) is 100%; in data set [4] (Month 2), 97%; in data set [4] (Month 3) it was 92%; in data set [4] (Month 4), 88%; in data set [4] (Month 5) it was 82%; in data set [4] (Month 6), 76%. In data set [4] (Month head blank), the “Residual ration(%)” value amounted to 100%. The coloration degree result in data set [5] was “increase in coloration at four (4) months or more”.

On to `CC(=O)Oc1c(C)c(C)c2c(c1C)CCC(C)(CCC[C@H](C)CCC[C@H](C)CCCC(C)C)O2` (some centres unmarked) [tocopherol acetate], for which the “oxidation ratio of Lard oil” value in data set [2] is given as “about 90%”. For the same compound, the “oxidation ratio of linoleic acid” value in data set [3] is “about 83%”.

As to `Cc1c(C)c2c(c(C)c1OP(=O)(O)OCCCN)CCC(C)(CCCC(C)CCCC(C)CCCC(C)C)O2` (stereo not drawn) [Preparation Example 1, 3-aminopropyl-α-tocopherol phosphate], in the data set with mice [6], the death of mice result was “no death of mice was observed”. Further, in the data set on mice [6], the “difference in the body weight after administration” value is given as “insignificant”. In the data set on mice [7], the “abnormal symptoms or changes in body weight” value is given as “no mice administered with the sample exhibited abnormal symptoms or changes in body weight”. In the data set on rabbits [8], the “abnormal symptom and change of body weight” value is “No abnormal symptom and change of body weight were observed”. In addition, in the data set with rabbits [9], the skin irritation result is reported as “no skin irritation was observed”. For the same compound, the eye irritation entry in the data set on rabbits [10] is “no eye irritation on cornea, iris and conjunctiva was observed”. Besides, the “skin abnormality (sensitization)” value in the data set with Guinea pigs is “no skin abnormality such as erythema, edema or freckles was observed”. Moreover, in the data set with healthy women, the primary irritation response entry was “primary irritation response was not observed”. In the data set with subjects, the “repeat irritation / sensitive irritation” value is “no repeat irritation or no sensitive irritation was observed”. The “Biosynthesis activity (%)” value in data set [1] (concentration 10^−6 %) came to 141%. Also, the “oxidation ratio of Lard oil” value in data set [2] was “about 5%”. The “oxidation ratio of linoleic acid” value in [3] was “about 3%”. The “stability by quantitative analysis (NMR Spectroscopy), compared with tocopherol” value in [4] was “more stable”. Further, the “Residual ration(%)” value in data set [4] (Month 1), in data set [4] (Month 2), in data set [4] (Month 3), in data set [4] (Month 4), in data set [4] (Month 5) and in data set [4] (Month 6) was 100% throughout. In addition, the “Residual ration(%)” value in [4] (Month head blank) was 100%. Moreover, the coloration degree entry in data set [5] is listed as “did not change in color”. Moreover, the hydrolysis ratio in the data set on phosphodiesterase came to 40%.

The values are drawn from US6410752B1, “Tocopherol derivatives and method for preparation thereof” (Pacific Corporation, priority 2000, dated 2002).
